Data set [1] deals with Male mice of the ddY strain. The data set can be described thus: Anti-hypoxic activity: brain protection against complete ischemia by decapitation (gasping persistent time). It is filed as in vivo. Conditions: decapitated one hour later, control group taken as 100 %, mean ± standard error. On the procedure: Male mice of the ddY strain (body weight 20-25g, 5 per group) were orally given the compound of the invention (dihydrochloride) dissolved in 1% gum arabic solution. One hour later, the mice were decapitated, and the time elapsed until a gasping-like mouth opening movement appearing after decapitation ceased (gasping persistent time) was measured, and compared with that obtained with the control group (the group to which 1% gum arabic solution was administered).

The subject of data set [2] is Male mice of the ddY strain. The data set can be described thus: Anti-CO2-induced amnesia activity (one-trial passive avoidance response). Conditions: retrieval 24 hours later, max 300 seconds. Format: in vivo. As for the experimental part: Male mice of the ddY strain (body weight 20 - -30 g, 30 per group) were used. Anti-CO₂-induced amnesia activity was determined by using one-trial passive avoidance response as an index. The experimental device consisted of two compartments, one illuminated and the other dark, with a guillotine door in the boundary of the two compartments permitting free passage of the mice through it. In an acquisition trial, a mouse was placed in the illuminated compartment and allowed to enter the dark one. As soon as the mouse entered the dark compartment, the door was shut, and an electrical shock (0.5 mA, 0.2 sec.) was applied through the grid floor. Thus, the mouse was caused to learn that it receives an electric shock upon entering the dark room. In a retrieval trial, the mouse was again placed in the illuminated compartment 24 hours after the acquisition trial, and the time elapsed until it entered the dark compartment (response latency) was measured to an extent of 300 seconds at the longest. (One-trial passive avoidance response) Treatment of inducing amnesia by carbon dioxide was performed by putting the mouse in a 1.6-liter plastic container having a gas intake opening and an gas discharging opening immediately after the acquisition trial, and passing 100% carbon dioxide gas for 14 seconds at a flow rate of 8 liters/min. […]

Data set [3] is described as follows: Acute toxicity (LD50 by the Weil method). Conditions: male, ddY, mouse, in vivo, dead animals counted one week later, read-out: LD₅₀. On the procedure:
Male ddY mice (body weight 20 - 26 g, 5 per group) were allowed to fast overnight. The compound of this invention (dihydrochloride) dissolved in distilled water was orally (p.o.) administered. From the number of dead animals counted one week later, the LD₅₀ (p.o.) was calculated by the Weil method.
Then, the compound of this invention (dihydrochloride) was dissolved in saline and intraperitoneally (i.p.) administered to the mice, and the LD₅₀ value (i.p.) was measured similarly.

For data set [4], the system named is Male mice of the ddY strain. Description: Anti-scopolamine-induced amnesia activity (one-trial passive avoidance response). It is filed as in vivo. Particulars: scopolamine hydrobromide 1 mg/kg i.p.; for Mean latency (seconds): p<0.01. On the procedure:
Male mice of the ddY strain (body weight 20-25g, 20 per group) were used, and the activity of the test compound on deficit of memory induced by scopolamine hydrobromide (a muscarinic acetylcholine receptor antagonist) was examined using one-trial passive avoidance response as an index. Using the same experimental device as in Test Example 1, the same acquisition trial and retrieval trial as in Test Example 1 were carried out (one-trial passive avoidanse response). Scopolamine hydrobromide (1 mg/kg) was intra peritoneally (i.p.) administered to the animals 20 minutes before the acquisition trial. The compound of the invention (dihydrochloride) was dissolved in 1 % gum arabic solution, and intraperitoneally administered immediately after the acquisition trial, and orally (p.o.) administered 60 minutes before the acquisition trial. A 1% solution of gum arabic was administered to the control group.

The test system of data set [5] is Male mice of the ddY strain. The data set can be described thus: Anti-hypoxic activity: brain protection against normobaric hypoxia (survival time in 100% nitrogen). Particulars: one hour before 100% nitrogen, control group taken as 100 %, mean ± standard error, p<0.01. Format: in vivo. On the procedure: Male mice of the ddY strain (body weight 20-25g, 5 per group) were orally administered with the compound of the invention (dihydrochloride) dissolved in a 1% gum arabic solution. One hour after the administration, the mouse was put in a transparent plastic container (capacity 27 liters) through which 100% nitrogen was passed at a rate of 80 liters/min. The time elapsed until the animal died (the survival time) was measured, and compared with that obtained with the control group (the group to which 1% gum arabic solution was administered).

The subject of the next data set is brain homogenate. Description: Lipid peroxide formation inhibiting activity (antioxidant activity), MDA formed by autoxidation. It is filed as biochemical, Rats. Particulars: for Antioxidant activity (n=4) Mean ± standard error (%): percent inhibition of autoxidation on the brain homogenate, 37 °C, 30 minutes. As for the experimental part:
The effect of the test compound on the formation of lipid peroxide by autoxidation was determined by the amount of malondialdehyde (MDA) formed.
Rats were decapitated, and the cerebrum was taken out and homogenized with 4 ml, per gram of the cerebrum, of 50 mM phosphate saline-buffer (pH 7.4) and centrifuged (2800 rpm, 10 minutes). The supernatant was taken into a 10 ml test tube to obtain a brain homogenate. It was frozen at -70 °C and stored.
The brain homogenate was defrozen, and immediately then, diluted to 10-fold with the aforesaid phosphate saline-buffer. A 2 ml portion of the dilution was taken into a 10 ml test tube cooled with ice, and used to measure its antioxidant activity. Twenty microliters of an aqueous solution of the compound of this invention (dihydrochloride) was added. The amount of MDA immediately after the addition was measured as shown below (MDA 0 time). The mixture was incubated at 37 °C for 30 minutes. The reaction was stopped by adding 400 microliters of 35% perchloric acid solution. After cooling with ice, the cooled mixture was centrifuged (2800 rpm, 10 minutes). To 1 ml of the supernatant, 0.5 ml of 0.5 % thiobarbituric acid solution dissolved in 50% acetic acid solution was added, and the mixture was heated at 100 °C for 15 minutes. After cooling with ice, the absorbance of the solution at 532 nm was measured, and the amount of MDA formed was determined (MDAtest).
As a control, the amount of MDA (MDAcont) was determined as above.
The antioxidant activity of the compound of the invention was expressed in terms of percent inhibition of autoxidation on the brain homogenate. The calculation was based on the following equation. [formula]

Like-named read-outs stand apart in the source and are kept apart here. Marks after values point to notes of the source that are not given here.

These results are taken from patent EP0302967A2, “Quinazoline derivative, processes for its production, and cerebral dysfunction remedying agent comprising it as active ingredient” (priority 1987, dated 1989).

In the case of `C=CCN1CCN(c2nc(OCCCCC)c3ccccc3n2)CC1.Cl.Cl` [Compound of the invention (2HCl), 2-(4-allyl-1-piperazinyl)-4-pentyloxyquinazoline dihydrochloride], the “Mean gasping persistent time (%)” value in data set [1] (10 mg/kg orally) was 107 ± 6%; in data set [1] (30 mg/kg orally, p<0.01) it was 139 ± 6 ** 2) %; in data set [1] (100 mg/kg orally, p<0.01), 187 ± 8 %. Also, the “Mean latency” value in data set [2] (10 mg/kg orally 60 minutes before acquisition trial, control group 155.3) is 185.8 s; in data set [4] (10 mg/kg (as free base) p.o. 60 minutes before acquisition trial, control group 63.1), 59.8 s. The “Mean latency (seconds)” value is recorded as 230.0**1) seconds in data set [2] (30 mg/kg orally 60 minutes before acquisition trial, control group 155.3, p<0.01); 190.4 **2) seconds in data set [4] (3 mg/kg (as free base) i.p. immediately after acquisition trial, control group 92.0); 185.1 ** seconds in data set [4] (10 mg/kg (as free base) i.p. immediately after acquisition trial, control group 92.0); 208.7 ** seconds in data set [4] (30 mg/kg (as free base) i.p. immediately after acquisition trial, control group 92.0); 144.6 ** seconds in data set [4] (30 mg/kg (as free base) p.o. 60 minutes before acquisition trial, control group 63.1). The LD50 at 1 week in data set [3] (ip, in saline) stood at 220 mg/kg; in data set [3] (po, in distilled water, fasted overnight), 1270 mg/kg. Moreover, the “Survival time (%)” value in data set [5] (10 mg/kg orally) is 122 ± 5 [1)**2)] %; in data set [5] (30 mg/kg orally) it was 151 ± 7 %. In addition, the “Antioxidant activity (n=4) Mean ± standard error (%)” value with brain homogenate (10 µM) came out at 6.4 ± 7.7%; in the data set on brain homogenate (30 µM) it was 27.1 ± 6.8%; in the data set on brain homogenate (100 µM), 77.9 ± 3.1%; with brain homogenate (300 µM), 93.4 ± 2.2%. Besides, the IC50 in the data set on brain homogenate (inhibition of autoxidation (MDA formation) on the brain homogenate, read-out: 50% inhibition concentration (IC₅₀)) is 52 µM.
